According to article PMC9866218, “Characterization and Chemical Synthesis of Cm39 (α-KTx 4.8): A Scorpion Toxin That Inhibits Voltage-Gated K^+ Channel KV1.2 and Small- and Intermediate-Conductance Ca^2+-Activated K^+ Channels KCa2.2 and KCa3.1” (Toxins, 2023):
“Also recorded” adds a separate entry of the source.

Key:
[1] = tested on: hKV1.3; type: cell-based, human
Excerpt: (§1) We, therefore, aimed at testing the pharmacological activity of sCm39 on a battery of various potassium and sodium ion channels. Among the tested channels were six members of human voltage-gated K^+ (hKV) channels from Shaker family, hKV1.1-hKV1.6 (Figure 3A–F) and three members of Ca^2+-activated potassium channel; hKCa2.2 (SK2, Figure 3I), the small-conductance Ca^2+-activated channel; hKCa3.1 (IKCa1, SK4. Figure 3J), the intermediate-conductance Ca^2+-activated channel expressed in T lymphocytes; and mKCa1.1 (BK, Slo1, MaxiK, Figure 3H), the large-conductance voltage- and Ca^2+-activated channel of mice. In addition, we also screened the effect of Cm39 on hKV11.1 (hERG1, Figure 3G), a voltage-gated cardiac K^+ channel, and two human voltage-gated sodium (hNaV) channels, hNaV1.4 (Figure 3K) and hNaV1.5 (Figure 3L), expressed in skeletal and cardiac muscles, respectively. These ion channels were heterologously expressed in the CHO or HEK cell lines except for KV1.3. Human peripheral T lymphocytes. They were stimulated with Phytohemagglutinin A (PHA) to increase the KV1.3 channel expression, and Ca^2+-free intracellular solution was used to avoid KCa3.1 channel activation. Appropriate depolarization protocols were used to record ionic currents in voltage-clamped cells (see Figure 3 insets and Material and Methods for details). Freshly dissolved sCm39 in extracellular solution was applied at 1 µM concentration on the cell using a custom-built micro-perfusion system at ~200 µL/min flow rate.
For the measurement of KV1.x, mKCa1.1 and NaV1.x currents the extracellular solution was composed of (in mM) 145 NaCl, 5 KCl, 2.5 CaCl2, 1 MgCl2, 10 HEPES and 5.5 glucose, pH 7.35. In the HK-150 and Na^+-free bath solution bath all Na^+ was substituted by K^+ or Choline-Cl, respectively, other ingredients remained unchanged. […]
Whole-cell currents were recorded in voltage-clamped cells following standard protocols by using a Multiclamp 700B amplifier connected to a computer with Axon Digidata1440 digitizer and for data acquisition, Clampex 10.7 software was used (Molecular Devices).

[2] = tested on: mKCa1.1; type: cell-based, mice; conditions: HEK 293 cells
Excerpt: as §1, with “rate. […]” for “rate.”
Whole-cell currents were recorded in voltage-clamped cells following standard protocols by using a Multiclamp 700B amplifier connected to a computer with Axon Digidata1440 digitizer and for data acquisition, Clampex 10.7 software was used (Molecular Devices). […]

For CC[C@H](C)[C@@H]1NC(=O)[C@H](C)NC(=O)[C@H](C)NC(=O)[C@H](CCCCN)NC(=O)[C@@H]2CSSC[C@@H](C(=O)N[C@@H](Cc3ccc(O)cc3)C(=O)N[C@@H](Cc3ccc(O)cc3)C(=O)O)NC(=O)[C@H](CCCCN)NC(=O)[C@@H]3CSSC[C@H](NC(=O)[C@H](CCC(=O)O)NC(=O)[C@H](CO)NC(=O)[C@H](CO)NC(=O)[C@H](CO)NC(=O)[C@H](CCCCN)NC(=O)[C@@H](NC(=O)[C@H](CCCCN)NC(=O)[C@H](Cc4c[nH]cn4)NC(=O)[C@H](CC(N)=O)NC(=O)[C@@H](NC(=O)[C@H](Cc4ccccc4)NC(=O)[C@@H](N)[C@@H](C)O)[C@@H](C)CC)CSSC[C@H](NC(=O)[C@H](CCCCN)NC(=O)CNC(=O)[C@H](CO)NC(=O)[C@H](C)NC(=O)[C@H](CCCNC(=N)N)NC(=O)CNC1=O)C(=O)N[C@@H]([C@@H](C)CC)C(=O)N[C@@H](CC(N)=O)C(=O)N[C@@H](CO)C(=O)N[C@@H]([C@@H](C)O)C(=O)N3)C(=O)N[C@@H](CC(C)C)C(=O)N1CCC[C@H]1C(=O)N[C@@H](C)C(=O)N2 [Cm39], the decrease in current ([1]; 1 µM, PHA-activated human peripheral T lymphocytes, 3−5 min, n = 3−5) was less than 3%, the “inhibition (in words)” value ([1]; 1 μM, human peripheral T lymphocytes) was “does not inhibit; also recorded: did not show any effect” and the “inhibition (in words)” value ([2]; 1 μM) was “does not inhibit; also recorded: did not show any effect”. It also gave a decrease in current ([2]; 1 µM, 3−5 min, n = 3−5) of less than 3%.
